Data reported in US20080220056A1, “Treatment for liver disease” (UNIVERSITY OF SOUTHAMPTON, priority 2002, published 2008).

Columns and labels:
Type in all cases: cell-based
[1] = system: caspase 3 activity in rat hepatic stellate cells; assay: Caspase 3 (Ac-DEVD-pNA cleavage) activity in rat hepatic stellate cells; details: 1.5 μmol/L, three hours, versus DMSO control
Experimental: Hepatic stellate cells cultured in 100 mm diameter dishes (Greiner, Frickenhausen, Germany) were harvested and pelleted by centrifugation. The medium supernatant was discarded and the cell pellet was washed in 1 mL of ice-cooled phosphate buffered saline (PBS). Caspase 3 (DEVDase) activity was determined using a colorimetric CaspACE kit (Promega, Southampton, England) using the manufacturer's instructions.
Caspase 3 (Ac-DEVD-pNA cleavage) activity was then examined in control and gliotoxin-treated hepatic stellate cells. Culture activated rat hepatic stellate cells (14 days) in 100 mm diameter plates were treated with 0.05% (vol/vol) DMSO, 1.5 μmol/L gliotoxin, 20 μmol/L Z-VAD-FMK or 200 μmol/L chlorpromazine for three hours. The cells were then harvested for examination of caspase 3 activity as outlined in the materials and methods sections.

[2] = system: rat hepatic stellate cells; assay: Trypan blue exclusion of treated rat hepatic stellate cells; details: rat HSC; 1.5 μmol/L gliotoxin or 200 μmol/L chlorpromazine
[3] = system: NF-kB DNA binding activity; assay: Electromobility shift assay for NF-kB DNA binding activity in rat hepatic stellate cells; details: activated rat HSC
Experimental: Crude high salt extractable nuclear protein was prepared from activated hepatic stellate cells for analysis of NF-kB DNA binding activity essentially as described (Elsharkawy et al., supra), aliquoted and stored at −80° C. until required. Extract protein concentrations were determined using the Lowry colorimetric assay (Lowry et al., supra) with bovine serum albumin as standard. A double stranded 5′ end labeled radiolabeled oligonucleotide [sense 5′-[…]-[…] (SEQ ID NO:1)] containing a consensus NF-kB DNA binding site as underlined (Baldwin et al., Annu. Rev. Immunol., (1996) 14:649-681) was used to determine NFkB DNA binding activity in crude nuclear extracts (Elsharkawy et al., supra).
The effect of gliotoxin on NF-kB activity in hepatic stellate cells was investigated. Culture-activated (14-day) rat hepatic stellate cells were incubated in the presence or absence of 10 ng/mL TNF-α fifteen minutes after addition of:
After a further 30 minutes, and before any significant morphologic changes, cells were washed with ice-cooled PBS, nuclear extracts prepared, and NF-kB DNA binding activity assessed by gel shift analysis. […] Each lane contained […] of protein and the results were the same for at least three separate experiments.

[4] = system: hepatic stellate cells; assay: TUNEL staining of cycloheximide-treated hepatic stellate cells; details: 50 μM cycloheximide 18 h; TIMP-1 100 ng/ml
Experimental: Hepatic stellate cells were cultured on glass chamber slides and then exposed to 50 μM cycloheximide for 18 h with and without TIMP-1 (100 ng/ml). Slides were then stained for DNA fragmentation characteristic of apoptosis by the TUNEL reaction as previously described (Iredale et al., J. Clin. Invest., (1998) 102, 538-549) with the modifications recently described to reduce false positively (Stahelin et al., Mol. Pathol., (1998) 51, 204-208). Each slide was then analyzed by a blinded observer who counted the number of TUNEL-positive apoptotic figures and the TUNEL-negative cells over 10 high power fields for each condition.
A further pathognomonic feature of apoptosis is the fragmentation of DNA into oligonucleosomal lengths (Evan et al., Cell (1992) 69: 119-128). Fragmented DNA can be identified by the TUNEL technique, which can therefore be used to further quantify the apoptotic response of hepatic stellate cells in the presence and absence of cycloheximide. To assess DNA fragmentation activated hepatic stellate cells were therefore induced to undergo apoptosis by cycloheximide treatment in the presence and absence of TIMP-1 and the number of TUNEL positive cells assessed. […] As a control cells which were treated with serum alone were analyzed. […]

[5] = system: rat hepatic stellate cells; assay: Hepatic stellate cell apoptosis by acridine orange staining and counting (cycloheximide or serum deprivation), rat cells
Experimental: Human hepatic stellate cells were extracted from the margins of normal human liver resected for colonic metastatic disease as previously described (Iredale et al., Clin. Sci., (1995) 89: 75-81). Rat hepatic stellate cells were extracted from normal rat liver by Pronase and collagenase digestion and purified by centrifugal elutriation as described (Arthur et al., J. Clin. Invest., (1989) 84:1076-1085). Extracted hepatic stellate cells were cultured on plastic until they were activated to a myofibroblastic phenotype after 7 to 10 days. Human and rat hepatic stellate cells were used for experiments after activation in primary culture or before fourth passage. Cells were cultured in Dulbecco's modified Eagle's medium in the presence of 16% fetal calf serum and antibiotics.
Apoptosis of hepatic stellate cells was induced by absolute serum deprivation, cycloheximide treatment (Issa et al., Gut (2001) 48: S48-S57), or exposure to nerve growth factor as previously described (Trim et al., Am. J. Pathol., (2000) 156, 1235-1243). Hepatic stellate cells were cultured in 24-well tissue culture plates. Rat and human hepatic stellate cells were exposed to proapoptotic stimuli with and without recombinant TIMP-1 (Biogenesis, Poole, UK) and other manipulations as detailed below. Following a 4 hour incubation at 37° C., nuclear morphology was assessed by adding acridine orange to each well (final concentration 1 μg/ml) and observing the cells under blue fluorescence. The total number of apoptotic bodies was counted, and any apoptotic bodies floating in the supernatant were included by racking up the objective lens. The total number of cells per field was counted, and an apoptotic index was calculated. Each condition was performed in duplicate, and three high power fields were counted for each well. […] To examine for autocrine effects, hepatic stellate cells were incubated for 18 hours with azide-free polyclonal neutralizing antibodies to TIMP-1 and a nonimmune IgG control (Santa Cruz Biotechnology, Inc., Santa Cruz, Calif.), and responses were assessed by acridine orange staining and counting.
Apoptosis was assessed by acridine orange staining. […] A normal cell lies adjacent to the apoptotic body. This technique was used to determine the percentage of apoptotic hepatic stellate cells following exposure to cyclohexamide in the presence or absence of TIMP-1. Hepatic stellate cells were exposed to 50 μM cyclohexamide and 0, 1, 10, 100 or 200 ng/ml of TIMP-1. Cells treated with serum alone were used as controls. […] Bovine serum albumin, used as a carrier for the TIMP-1 had no antiapoptotic effect.

| Compound | increase in caspase 3 activity [1] [fold] | 0.1% (wt/vol) trypan blue exclusion (membrane integrity) [2] | TNF-α-inducible NF-kB DNA binding activity ([3]; 10 ng/mL TNF-α, same concentrations as for constitutive activity) | constitutive NF-kB DNA binding activity ([3]; gliotoxin 1.5 μmol/L, N-acetyl cysteine 5 mM, calpain inhibitor 1 50 μM, dexamethasone 0.5 μm, pentoxyfilline 3.6 mM) | cells containing fragmented DNA (TUNEL) [4] | apoptosis induced by cycloheximide (acridine orange) ([5]; 50 μM cycloheximide, 4 hours, TIMP-1 1-200 ng/ml) | apoptosis in serum-free conditions (acridine orange) ([5]; 24 hour incubation in serum-free conditions) | reduction in apoptotic morphology by acridine orange staining and counting ([5]; TIMP-1 10 ng/ml, cycloheximide) [%] | reduction in apoptosis by acridine orange staining and counting ([5]; TIMP-1 100 ng/ml, cycloheximide) [%] | apoptosis induced by cycloheximide (acridine orange) ([5]; rat HSC, protein at 142.5 ng/ml) |
| --- | --- | --- | --- | --- | --- | --- | --- | --- | --- | --- |
| CN1C(=O)[C@]23CC4=CC=C[C@H](O)[C@H]4N2C(=O)[C@@]1(CO)SS3 [gliotoxin] | 7.6 | detached cells that excluded 0.1% (wt/vol) trypan blue | inhibits TNF-α-inducible NF-kB DNA binding activity | does not have a marked inhibitory effect | – | – | – | – | – | – |
| TIMP-1: recombinant tissue inhibitor of matrix metalloproteases 1 (Biogenesis) | – | – | – | – | significantly reduced numbers of cells containing fragmented DNA | significantly reduces apoptosis of activated hepatic stellate cells induced by cycloheximide exposure in a dose-dependent manner | identical effect | 30 | 50 | inhibited apoptosis induced by cycloheximide exposure |
